{"source": "patent US9346834B2", "about": "“Boron-containing small molecules as antiprotozoal agents” (Anacor Pharmaceuticals, Inc., priority 2009, dated 2016)", "system": "Leishmania infantum MHOM/MA(BE)/67", "experiment": "Leishmania infantum macrophage screening assay, primary screen", "format": "cell-based", "conditions": "120 h, amastigotes in primary peritoneal mouse macrophages, 5 days incubation, % reduction in parasite burden, reference drugs, read-out: IC50 (50% inhibitory concentration)", "experimental": "Parasite and Cell Cultures. Two Leishmania species (L. infantum MHOM/MA(BE)/67 and L. donovani MHOM/ET/67/L82) were used. The strains were maintained in the Golden Hamster (Mesocricetus auratus). Amastigotes were collected from the spleen of an infected donor hamster using three centrifugation purification steps (300 rpm, keeping the supernatant, 2200 rpm, keeping the supernatants and 3500 rpm, keeping the pellet) and spleen parasite burdens were assessed using the Stauber technique (Stauber L A., Exp Parasitol. 18: 1-11 (1966)). Primary peritoneal mouse macrophages were used as host cell and were collected 2 days after peritoneal stimulation with a 2% potato starch suspension. All cultures and assays were conducted at 37° C. under an atmosphere of 5% CO2.\nCompound Solutions/Dilutions. Compound stock solutions were prepared in 100% DMSO at 20 mM or mg/ml. Concentrations were standard and expressed in molar concentrations, except for natural products, drug mixtures and if the molecular weight was not known. […]\nDrug Sensitivity Assays. […] After 5 days incubation, parasite burdens (mean number of amastigotes/macrophage) were microscopically assessed after staining the cells with a 10% Giemsa solution. The results were expressed as % reduction in parasite burden compared to untreated control wells and an IC50 (50% inhibitory concentration) was calculated. […]", "data": [{"smiles": "CCCCCCCCCCCCCCCCOP(=O)([O-])OCC[N+](C)(C)C", "note": "[miltefosin]", "values": [{"measurement": "IC50", "result": 4.3, "unit": "µM"}]}]}
